Patent US20060281724A1, “Methods for Treating Shock” (priority 2005, published 2006)

Tests used:
[1] = system: rats subjected to 40% loss of total blood volume; test: Rat model of volume hemorrhagic trauma (blood loss model); assay type: in vivo
Description: Twenty-four rats were subjected to 40% loss of total blood volume, consisting of catheterization and laparotomy (soft tissue injury) to mimic trauma and hemorrhage. One hour after onset of hemorrhage, the animals were resuscitated with crystalloid fluid and packed red blood cells (PRBCs). Twelve animals received one subcutaneous injection of AET in a methyl cellulose suspension at a concentration of 40 mg/kg body weight in 100 μl/kg body weight, one hour after initiation of hemorrhage, but prior to fluid resuscitation. Twelve animals received subcutaneous methyl cellulose control injection at 100 μl/kg body weight.

[2] = system: rats hemorrhaged down to a mean arterial pressure of about 35-40 mmHg; test: Rat model of blood pressure hemorrhagic trauma (pressure reduction model); assay type: in vivo; conditions: two days after induction of hemorrhage; AET 40 mg/kg subcutaneous in methyl cellulose suspension, one hour after initiation of hemorrhage, prior to fluid resuscitation; untreated/control group 75%
Description: In a second model of hemorrhagic trauma, 15 rats were hemorrhaged as in Example 1 down to a mean arterial pressure of about 35-40 mmHg and resuscitated one hour from onset of hemorrhage with crystalloid and PRBCs. Seven […] subcutaneous injection of AET in a methyl cellulose suspension at a concentration of 40 mg/kg body weight in 100 μl/kg body weight, one hour after initiation of hemorrhage, but prior to fluid resuscitation. Eight animals received subcutaneous methyl cellulose control injection at 100 μl/kg body weight. Two days after induction of hemorrhage, mortality in the untreated group (n=8) was 75%.

SMILES: C[C@]12CCC(O)CC1=CC(O)[C@@H]1[C@@H]2CC[C@]2(C)C(O)CC[C@@H]12 (stereo partly drawn) [AET, trihydroxy-androst-5ene]
- mortality ([1]; three days after hemorrhagic conditions that reduced total blood volume by 40%, FIG. 1): zero
- survival rate ([1]; three days after induction of hemorrhage, AET 40 mg/kg subcutaneous in methyl cellulose suspension, one hour after initiation of hemorrhage, prior to fluid resuscitation, untreated group mortality 25%, P<0.04): 100%
- mortality rate [2]: 43%
